# Legend:
# [1] = target: cGMP PDE purified from human colon HT-29 cultured tumor cells (Homo sapiens, UniProt O76074); assay: cGMP PDE inhibition assay; assay type: biochemical
# [2] = system: HT-29 colon adenocarcinoma cells; assay: Apoptosis by DNA fragmentation assay in HT-29 cells; assay type: cell-based, human; settings: Table 9 qualitative profile; note: key: −: Not active; +: Slightly active; + +: Moderately active; + + +: Strongly active; + + + +: Highly active
# HT-29 cells = assay: Growth inhibition of HT-29 cells (SRB assay; trypan blue counting in time course); assay type: cell-based, human; settings: Table 9 qualitative profile
# [3] = system: premalignant lesions in mouse mammary gland organ culture; assay: Mammary gland organ culture model; assay type: cell-based; for mammary gland organ culture: key: −: Not active; +: Slightly active; + +: Moderately active; + + +: Strongly active; + + + +: Highly active
# Source text: Test compounds identified by the above methods can be tested for antineoplastic activity by their ability to inhibit the incidence of pre-neoplastic lesions in a mammary gland organ culture system. This mouse mammary gland organ culture technique has been successfully used by other investigators to study the effects of known antineoplastic agents such as certain NSAIDs, retinoids, tamoxifen, selenium, and certain natural products, and is useful for validation of the screening method of the present invention.
# For example, female BALB/c mice can be treated with a combination of estradiol and progesterone daily, in order to prime the glands to be responsive to hormones in vitro. The animals are sacrificed, and thoracic mammary glands are excised aseptically and incubated for ten days in growth media supplemented with insulin, prolactin, hydrocortisone, and aldosterone. DMBA (7,12-dimethylbenz(a)anthracene) is added to medium to induce the formation of premalignant lesions. Fully developed glands are then deprived of prolactin, hydrocortisone, and aldosterone, resulting in the regression of the glands but not the pre-malignant lesions.
# The test compound is dissolved in DMSO and added to the culture media for the duration of the culture period. At the end of the culture period, the glands are fixed in 10% formalin, stained with alum carmine, and mounted on glass slides. The incidence of forming mammary lesions is the ratio of the glands with mammary lesions to […]. The incidence of mammary lesions in test compound treated glands is compared with that of the untreated glands.
# The extent of the area occupied by the mammary lesions can be quantitated by projecting an image of the gland onto a digitation pad. The area covered by the gland is traced on the pad and considered as 100% of the area. The space covered by each of the non-regressed structures is also outlined on the digitization pad and quantitated by the computer.
# Mammary gland organ culture experiment were performed as previously described (Mehta and Moon, Cancer Research, 46: 5832-5835, 1986).
# [4] = system: PKG activity in HCT116 colon cancer cells; assay: PKG activity assay in drug-treated HCT116 cells; assay type: cell-based
# Source text: To test the effect of cGMP-specific PDE inhibition on neoplasia containing the β-catenin mutation, HCT116 colon cancer cells were employed. HCT116 is known to contain the β-catenin mutation, but is known not to contain the APC mutation.
# The same procedure is used to grow the HCT116 cells as is used in the SW480 procedure described above. In this experiment, only exisulind and controls were used.
# [5] = system: β-catenin and PKG levels in SW480 cells; assay: Western blot of β-catenin and PKG in SW480 cells; assay type: cell-based, human
# Description: SW480 cells treated with exisulind as described previously are harvested from the microfuge tubes by rinsing once with ice-cold PBS. The cells are lysed by modified RIPA buffer for 15 minutes with agitation. The cell lysate is spun down in a cold room. The supernatants are transferred to fresh microcentrifuge tubes immediately after spinning. BioRad DC Protein Assay (Temecula, Calif.) is performed to determine the protein concentrations in samples. The samples are normalized for protein concentration, as described above.
# 50 μg of each sample is loaded onto a 10% SDS gel. SDS-PAGE is performed, and the proteins then are transferred to a nitrocellulose membrane. The blotted nitrocellulose membrane is blocked in freshly prepared TBST containing 5% nonfat dry milk for one hour at room temperature with constant agitation.
# A goat-anti-PKG primary antibody is diluted to the recommended concentration/dilution in fresh TBST/5% nonfat dry milk. The nitrocellulose membrane is placed in the primary antibody solution and incubated one hour at room temperature with agitation. The nitrocellulose membrane is washed three times for ten minutes each with TBST. The nitrocellulose membrane is incubated in a solution containing a secondary peroxidase (POD) conjugated rabbit anti-goat antibody for 1 hour at room temperature with agitation. The nitrocellulose membrane is washed three times for ten minutes each time with TBST. The detection is performed by using Boehringer Mannheim BM blue POD substrate.
# SW480 cells were treated with exisulind or vehicle (0.1% DMSO) for 48 hours. 50 μg supernatant of each cell lysate was loaded onto a 10% SDS-gel and blotted to a nitrocellulose membrane, and the membrane was probed with rabbit-anti-β-catenin and rabbit anti-PKG antibodies.
# This observation was made by culturing SW480 cells with either 200, 400 or 600 μM exisulind or vehicle (0.1% DMSO). The cells are harvested 48 hours post treatment and processed for immunoblotting. Immuno-reactive protein can be detected by Western blot. […]
# [6] = Clinical tolerability of exisulind; assay type: in vivo
# Source text: This effect is reversible, and liver enzymes return to normal levels when the administered dose of exisulind returns to the traditionally recommended level or when treatment is discontinued. The purpose of using combinations is to allow a lower dose of each to be used.
compound,measurement,setting,value
"CC1=C(CC(=O)O)c2cc(F)ccc2/C1=C\c1ccc(S(C)(=O)=O)cc1 [Exisulind, 5-fluoro-2-methyl-1-(p-methylsulfonylbenzylidene)-3-indenylacetic acid]",PDE Inhibition,[1]; Table 9 qualitative profile,+ +
same,inhibition at 10 µM,"[1]; read-out: % Inhibition at 10 μM (cGMP PDE), 10 μM",39%
same,IC50,[1]; read-out: IC50 for inhibition of cGMP PDE,56 µM
same,Apoptosis,[2],+ +
same,Growth Inhibition,HT-29 cells,+ +
same,inhibition of formation of premalignant lesions,[3]; FIG. 17,effectively inhibit
same,Mammary Gland Organ Culture,[3]; Table 9 qualitative profile,+ + +
same,PKG activation relative to control,[4],PKG activation occurred
same,reduction of β-catenin expression compared to control,"[5]; SW480, 200, 400 or 600 μM, 48 hours",50%
same,PKG level,"[5]; SW480, 48 hours, FIG. 19",increase of PKG
same,β-catenin level,"[5]; SW480, 48 hours, FIG. 19",drop of β-catenin
same,side effects at recommended dose,[6]; 300-400 mg/day,no clinically significant side effects
same,effect at doses higher than the recommended therapeutic levels,[6]; reversible,elevated levels of liver enzymes
